Assay results published in ChEMBL document CHEMBL3616375, “Novel 11β-HSD1 inhibitors: C-1 versus C-2 substitution and effect of the introduction of an oxygen atom in the adamantane scaffold” (Bioorg Med Chem Lett, 2015).

Target: 11-beta-hydroxysteroid dehydrogenase 1 (Homo sapiens, UniProt P28845)
Assay: Inhibition of 11beta-HSD1 in human mixed sex human liver microsomes assessed as reduction in conversion of [3H]-cortisone to [3H]-cortisol pre-incubated for 15 mins before [3H]-cortisone addition in presence of NADPH by scintillation proximity assay

Sequence of 11-beta-hydroxysteroid dehydrogenase 1 (P28845 whole entry): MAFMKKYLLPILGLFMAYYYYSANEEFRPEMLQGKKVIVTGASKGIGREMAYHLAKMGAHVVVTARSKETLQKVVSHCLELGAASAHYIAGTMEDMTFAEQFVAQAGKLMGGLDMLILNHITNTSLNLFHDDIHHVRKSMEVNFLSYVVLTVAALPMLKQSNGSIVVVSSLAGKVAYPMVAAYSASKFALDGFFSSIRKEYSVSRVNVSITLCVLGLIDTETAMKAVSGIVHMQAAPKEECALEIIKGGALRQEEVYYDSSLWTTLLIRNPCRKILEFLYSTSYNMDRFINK

IC50: 0.086 µM
Compound: O=C(NC1C2CC3CC(C2)CC1C3)C1CCCCC1 (stereo unspecified)
